The test system of test [1] is TNF-α release from whole blood cultures stimulated with LPS. Nature of the test: IC50 by TNF alpha production upon stimulation of whole blood cultures with LPS. The test is classed as cell-based. Particulars: human whole blood (buffy coat) culture, 100 ng/ml LPS, 4 hours; read-out: h TNFα IC50. An outline of the steps:
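Human buffy coat, diluted with 7 volumes of RPMI/2.5% heat-inactivated FBS, was preincubated with compound (8-point 1:3 series) for 1 h at 37 °C. It was then stimulated with 100 ng/ml LPS (final) for 4 h. Supernatant TNF-α was measured by sandwich ELISA at 450 nm, and IC50 was set between DMSO (0%) and PDE4-inhibitor (100%) controls.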

For test [2], the target named is T1, PDE4B2: full-length human PDE4B2 isozyme (Homo sapiens, UniProt Q07343).
T1 construct: made in house; host or cells: baculovirus infected insect cells (pFastBacHT)
Nature of the test: PDE4 IC50 determination by Scintillation Proximity Assay (SPA), full-length PDE4B2. The conditions noted are these: cell lysate, [3H]cAMP SPA. The test is classed as biochemical. The method, boiled down: (§1)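 Unpurified enzyme from cell lysates (PDE4B2 2.5 μl, PDE4D5 0.083 μl of 50% glycerol stock/ml) hydrolysing [3H]cAMP in 50 mM Tris pH 7.5, 8.3 mM MgCl, 1.7 mM EGTA, 0.01% BSA, 30 min at 30 °C. Stopped with yttrium silicate SPA beads in 18 mM ZnSO4; bead-bound [3H]AMP counted. IC50 by non-linear regression.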

The subject of test [3] is TNFα levels in serum of LPS-challenged rats. Nature of the test: Rat inhibition studies: serum TNFα after iv LPS challenge. Particulars: 5 mg/kg po, LPS 0.1 mg/kg iv 2 h after dosing, percent decrease in serum TNFα versus vehicle, read-out: % inhibition r TNFα. Type of test: in vivo. The method, then:
All studies were done with male rats CD (SD) IGS BR (Crl) (Charles River, France), which were grouped in to 5 animal groups.
At the end of the acclimatization period, the non-fasted rats were weighed, individually identified on the tail with a permanent marker and administered by oral (po) or interperitoneal (ip) route with either vehicle, reference or test compound in a volume of 10 mL/kg adapted to the body weight. The animals were gathered in groups of 5 animals in a polystyrene labeled cage with sawdust covered floors. 2-hours after vehicle, reference or test substance administration, rats received an intravenous (iv) injection of 0.1 mg/kg LPS in a volume of 1 mL/kg of body weight. 2 h after LPS challenge (or as indicated in Tables 3B and 4B), blood samples were collected into tubes without anticoagulant by retro-orbital puncture under gas (isoflurane) anesthesia. Samples were allowed to clot at room temperature for 5 to 10 min then put on ice until there were prepared by centrifugation (6000×g for 3 min at 4° C.) and stored at −20° C. until use. TNFα levels were measured in serum samples in duplicate by ELISA technique according to the manufacturer's procedure (Rat TNFα kit Quantikine M (RTA00, R&D System, France)). Data are reported as percent decrease in observed TNFα levels versus TNFα levels observed for vehicle dosed animal groups.

In test [4] the target is T2, PDE4D5: full-length human PDE4D5 isozyme (Homo sapiens, UniProt Q08499).
T2 construct: made in house; host or cells: baculovirus infected insect cells (pFastBacHT)
Nature of the test: PDE4 IC50 determination by Scintillation Proximity Assay (SPA), full-length PDE4D5. The test is classed as biochemical. Particulars: cell lysate, [3H]cAMP SPA. The method, boiled down: as §1
(In general: Scintillation proximity formats need no separation of bound from free tracer.)

The target of test [5] is T3, PDE4B: catalytic domain of human PDE4B from S152-S528 (Homo sapiens, UniProt Q07343).
T3 construct: The catalytic domain of human PDE4B from S152-S528; His6 (N, cleaved yes); thrombin cleavage site (N, cleaved yes); made in house; host or cells: E. coli BL21 (DE3) RIL
Nature of the test: PDE4 IC50 determination by Scintillation Proximity Assay (SPA), PDE4B catalytic domain. The test is classed as biochemical. The conditions noted are these: [3H]cAMP SPA, 30 min at 30° C. An outline of the steps:
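Human PDE4B catalytic domain (80 ng/ml) hydrolysed [3H]cAMP in 50 mM Tris pH 7.5, 8.3 mM MgCl, 1.7 mM EGTA, 0.01% BSA for 30 min at 30 °C. Reaction was stopped with yttrium silicate SPA beads in 18 mM ZnSO4, and bound [3H]AMP was counted by scintillation. IC50 came from non-linear regression.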

T1 sequence (Q07343 with tags, fused parts or gaps isoform Q07343-2): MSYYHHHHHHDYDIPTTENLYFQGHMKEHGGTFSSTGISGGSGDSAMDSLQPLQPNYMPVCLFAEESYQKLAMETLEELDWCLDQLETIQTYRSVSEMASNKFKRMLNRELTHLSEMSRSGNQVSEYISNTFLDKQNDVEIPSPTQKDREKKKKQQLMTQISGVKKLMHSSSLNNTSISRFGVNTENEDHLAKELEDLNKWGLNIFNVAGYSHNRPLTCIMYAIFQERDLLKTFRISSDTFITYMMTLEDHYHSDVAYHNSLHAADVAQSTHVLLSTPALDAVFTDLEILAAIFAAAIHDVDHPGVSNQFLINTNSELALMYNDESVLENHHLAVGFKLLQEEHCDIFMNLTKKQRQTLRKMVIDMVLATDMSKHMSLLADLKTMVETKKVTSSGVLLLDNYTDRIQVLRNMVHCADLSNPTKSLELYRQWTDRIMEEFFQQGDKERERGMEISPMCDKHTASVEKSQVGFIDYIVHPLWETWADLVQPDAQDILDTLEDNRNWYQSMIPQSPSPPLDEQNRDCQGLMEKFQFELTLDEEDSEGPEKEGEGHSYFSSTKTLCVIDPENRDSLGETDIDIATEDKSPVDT
T3 sequence (Q07343 324-700): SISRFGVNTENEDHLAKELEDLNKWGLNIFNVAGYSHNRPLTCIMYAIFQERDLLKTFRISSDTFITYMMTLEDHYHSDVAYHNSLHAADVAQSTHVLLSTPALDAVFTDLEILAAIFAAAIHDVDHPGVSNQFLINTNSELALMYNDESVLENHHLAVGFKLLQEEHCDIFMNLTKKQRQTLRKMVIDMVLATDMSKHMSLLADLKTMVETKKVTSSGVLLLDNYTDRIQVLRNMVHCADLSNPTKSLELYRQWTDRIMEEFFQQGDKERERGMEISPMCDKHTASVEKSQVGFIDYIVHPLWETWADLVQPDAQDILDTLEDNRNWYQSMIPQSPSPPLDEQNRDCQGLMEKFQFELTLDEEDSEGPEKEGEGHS
T2 sequence (Q08499 with tags, fused parts or gaps isoform Q08499-6): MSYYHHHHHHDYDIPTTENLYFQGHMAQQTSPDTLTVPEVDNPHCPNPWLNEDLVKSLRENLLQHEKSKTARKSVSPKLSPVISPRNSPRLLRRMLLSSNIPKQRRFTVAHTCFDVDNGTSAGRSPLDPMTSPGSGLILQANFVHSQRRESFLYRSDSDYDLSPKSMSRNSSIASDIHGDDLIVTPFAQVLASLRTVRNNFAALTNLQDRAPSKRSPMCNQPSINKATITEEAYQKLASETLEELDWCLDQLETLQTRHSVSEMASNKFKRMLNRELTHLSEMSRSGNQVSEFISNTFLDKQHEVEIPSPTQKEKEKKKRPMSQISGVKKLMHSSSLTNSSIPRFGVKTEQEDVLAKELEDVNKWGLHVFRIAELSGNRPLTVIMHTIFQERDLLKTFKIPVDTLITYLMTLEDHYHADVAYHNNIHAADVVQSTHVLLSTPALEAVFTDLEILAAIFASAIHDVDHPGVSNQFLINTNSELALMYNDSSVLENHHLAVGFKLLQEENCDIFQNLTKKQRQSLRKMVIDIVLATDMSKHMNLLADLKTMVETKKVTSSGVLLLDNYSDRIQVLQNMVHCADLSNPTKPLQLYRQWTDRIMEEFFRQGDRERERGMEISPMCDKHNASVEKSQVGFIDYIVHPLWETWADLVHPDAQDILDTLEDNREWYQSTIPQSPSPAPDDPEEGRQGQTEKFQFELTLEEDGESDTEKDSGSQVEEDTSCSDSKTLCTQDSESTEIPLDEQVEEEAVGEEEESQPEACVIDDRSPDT

Broadly, the IC50 is the point on the concentration scale where inhibition reaches its midpoint. For `CCOc1ccccc1C(=O)n1ccc2cc(-c3ccc(OC)c(OC)c3)cnc21` [Compound 83, [5-(3,4-Dimethoxy-phenyl)-pyrrolo[2,3-b]pyridin-1-yl]-(2-ethoxy-phenyl)-methanone], the IC50 in test [1] is at most 10 µM; in test [2] it was below 10 µM; in test [4] it was below 10 µM; in test [5], below 10 µM. The inhibition in vivo at 5 mg/kg in test [3] is at least 20%.
Turning to `COc1ccc(-c2cn(C(=O)c3ccccc3OC(C)=O)c3ncccc23)cc1OC` [Compound 110, Acetic acid 2-[3-(3,4-dimethoxy-phenyl)-pyrrolo[2,3-b]pyridine-1-carbonyl]-phenyl ester], the IC50 in test [1] is at most 10 µM; in test [2], below 10 µM; in test [4], below 10 µM; in test [5], below 10 µM. Moreover, the inhibition in vivo at 5 mg/kg in test [3] is at least 20%.
For the compound `COc1ccc(-c2ccnc3c2ccn3S(=O)(=O)c2cccc3cccnc23)cc1OC` [Compound 126, 8-[4-(3,4-Dimethoxy-phenyl)-pyrrolo[2,3-b]pyridine-1-sulfonyl]-quinoline], the IC50 was at most 10 µM in test [1], below 10 µM in test [2], below 10 µM in test [4] and below 10 µM in test [5]. In test [3], the inhibition in vivo at 5 mg/kg was at least 20%.
